Laboratory results published in US6602905B1, “N-acyl homoserine lactones for the treatment of cardiac tachyarrhythmias, ischaemic heart disease or congestive heart failure” (The University of Nottingham, priority 1999, dated 2003).

Legend:
Male rats (Long Evans) [1] = experiment: Cardiovascular variables in conscious, freely moving instrumented rats after intravenous injection; type: in vivo, rat; conditions: vs vehicle; for effect on the heart rate / effect on the mean arterial blood pressure: 10 mg per kg body weight i.v. in acetonitrile/dextrose
Procedure: (§1) Male rats (Long Evans) of body mass in the range of from 350 to 450 g were used in the experiments.
(§2) The rats were instrumented with probes to monitor blood flow in renal, mesenteric and hindquarters vascular beds and with catheters to measure blood pressure and heart rate and to administer substances intravenously.
(§3) Measurements of the cardiovascular variables were made in the test rats which were conscious and able to move freely during the duration of the test procedure (10 minutes). The raw data were sampled (every 2 ms), averages were calculated (per cardiac cycle) and the data was stored to diskette (every 5 s). The stored data was analysed off line.
The following substances were administered by intravenous injection to the test rats.
1) vehicle only (100 μl of 50:50 acetonitrile:dextrose)
2) 10 mg per kg body weight of N-(3-oxododecanoyl)homoserine lactone (OdDHL; Formula I; n=2, Y=X=O, R=3-oxododecanoyl). The OdDHL was dissolved in acetonitrile/dextrose (50 μl:50 μl) 100 μl.
3) vehicle only (100 μl of 50:50 acetonitrile:dextrose)
4) 10 mg per kg body weight of N-(3-oxoundecanoyl)homoserine lactone (OuDHL; Formula I; n=2, Y=X=O, R=3-oxoundecanoyl).
The OuDHL was dissolved in acetonitrile/dextrose (50 μl:50 μl) 100 μl.

Male rats (Long Evans) [2] = experiment: Cardiovascular variables in conscious rats after cardiac autonomic blockade with atenolol + atropine; type: in vivo, rat; conditions: 10 mg per kg i.v. after earlier administration of atenolol and atropine
Procedure: as §1, §2, §3
The following substances were administered intravenously to the test rats.
1) As in 2) in Experiment I above (∘)
2) Atenolol +atropine then as in 2) in Experiment I above (●).

Structure (SMILES)	effect on the heart rate (Male rats (Long Evans) [1])	effect on the mean arterial blood pressure (Male rats (Long Evans) [1])	blood flow, particularly in the mesenteric and hindquarters (Male rats (Long Evans) [1]; 10 mg per kg body weight i.v.)	bradycardia (heart rate) after cardiac autonomic blockade (Male rats (Long Evans) [2])
CCCCCCCCCC(=O)CC(=O)N[C@H]1CCOC1=O [OdDHL, N-(3-oxododecanoyl)homoserine lactone]	profound bradycardia	substantially no change	reduced	not observed
CCCCCCCCC(=O)CC(=O)NC1CCOC1=O (stereo not drawn) [OuDHL, N-(3-oxoundecanoyl)homoserine lactone]	marked bradycardia	substantially no change		
